Patent US20250066807A1, “CYP72A219 GENES CONFERRING HERBICIDE TOLERANCE” (COLORADO STATE UNIVERSITY RESEARCH FOUNDATION, priority 2021, published 2025)
Entries after “also recorded” stand apart in the source; their conditions may differ.

What was measured:
[1] = test system: yeast lines WAT11 and WAT21; test: tembotrione metabolism in yeast with empty pYES2 vector (negative control); assay type: in vitro ADME; conditions: 150 μL of 1000 μM tembotrione, 24 h, 30 C, FIG. 3A
Method: (§1) A functional validation of the candidate genes was conducted in a yeast system. In brief, the yeast lines WAT11 and WAT21 express the plant cytochrome P450 reductase genes ATR1 and ATR2, respectively, and have the endogenous yeast cytochrome P450 reductase gene knocked out. The sequences of the three CYP72A219 genes and the CYP81E gene were codon-optimized for expression in yeast and synthesized by Genewiz in vector pUC57. The genes were cloned into yeast expression vector pYES2 with a galactose inducible promoter, a uracil synthesis gene, and an ampicillin resistance gene. The vectors were first transformed into E. coli and selected on ampicillin, followed by sequencing to confirm the correct insertion of the P450 gene sequence. Plasmid was extracted from transformed colonies for transformation into yeast lines WAT11 and WAT21 using a LiAc protocol and plated on glucose-containing media lacking uracil to select for transformed cells. The empty pYES2 vector was included as a negative control, and a vector containing the Nsf1 gene from corn was included as a positive control known to metabolize the HPPD-inhibiting herbicides mesotrione and tembotrione. […] The incubation solution was then centrifuged, and the supernatant was analyzed using LC/MS-MS to measure parent tembotrione and hydroxy tembotrione metabolites. […]

[2] = test system: CYP72A219 gene from chromosome 4 (MAKER-25717; SEQ ID NO: 1); test: tembotrione metabolism in yeast expressing CYP72A219 (a); assay type: in vitro ADME, Amaranthus palmeri; conditions: CYP72A219 SEQ ID NO: 1 vector; 150 μL of 1000 μM tembotrione, 24 h, 30 C; FIG. 3C
Method: as §1

[3] = test system: variant allele of this CYP72A219 gene (SEQ ID NO: 3); test: tembotrione metabolism in yeast expressing variant allele of CYP72A219 (a); assay type: in vitro ADME, Amaranthus palmeri; conditions: variant allele SEQ ID NO: 3 vector; 150 μL of 1000 μM tembotrione, 24 h, 30 C
Method: as §1

[4] = test system: second CYP72A219 gene from chromosome 4 (SEQ ID NO: 5); test: tembotrione metabolism in yeast expressing CYP72A219 (b); assay type: in vitro ADME, Amaranthus palmeri; conditions: SEQ ID NO: 5 vector; 150 μL of 1000 μM tembotrione, 24 h, 30 C; FIG. 3D-E
Method: as §1

[5] = test system: CYP72A219 gene from chromosome 16 (SEQ ID NO: 7); test: tembotrione metabolism in yeast expressing CYP72A219 (c); assay type: in vitro ADME, Amaranthus palmeri; conditions: SEQ ID NO: 7 vector; 150 μL of 1000 μM tembotrione, 24 h, 30 C; FIG. 3D-E
Method: as §1

[6] = test system: CYP81E gene (SEQ ID NO: 9); test: tembotrione metabolism in yeast expressing CYP81E; assay type: in vitro ADME, Amaranthus palmeri; conditions: CYP81E SEQ ID NO: 9 vector; 150 μL of 1000 μM tembotrione, 24 h, 30 C; FIG. 3F
Method: as §1

[7] = test system: CYP72A219 (a), CYP72A219 (b), CYP72A219 (c) and CYP81E genes; parameters: species or system Amaranthus palmeri; conditions: in vivo
[8] = test system: CYP81E and CYP72A219 genes; parameters: species or system Amaranthus palmeri; conditions: in vivo
Palmer amaranth = test: tembotrione dose response (plant survival) of Palmer amaranth survey populations; assay type: in vivo, Amaranthus palmeri; conditions: eleven survey populations; FIG. 4A
Method: A survey of Palmer amaranth in the US was conducted to identify additional populations resistant to the HPPD inhibiting herbicide tembotrione. A tembotrione dose response was conducted to compare the response of the survey populations to a known sensitive population. The population USA 12001 (the population used for all previous work to identify CYP450 genes) was used as a known resistant reference.

CYP72A219 (a) = test system: CYP72A219 (a); parameters: species or system Amaranthus palmeri; conditions: in vivo
Method: (§2) Transcript abundance was measured in the 11 resistant survey populations for genes CYP72A219 (a), CYP81E, and a CYP not implicated in herbicide resistance (FIG. 4B-D). Known sensitive populations HPPD S and HPPD S 12021 were included as references, as was known resistant population HPPD R 12001, the population previously characterized for increased expression of CYP72A219 (a) and CYP81E. Relative transcript abundance was quantified using qRT-PCR on cDNA synthesized from RNA extracted from individuals before and 6 h after tembotrione treatment, using normalization genes as previously described.

CYP81E = test system: CYP81E; parameters: species or system Amaranthus palmeri; conditions: in vivo
Method: as §2

[9] = test system: a CYP not implicated in herbicide resistance; parameters: species or system Amaranthus palmeri; conditions: in vivo
Method: as §2

[10] = test system: Palmer amaranth (Amaranthus palmeri); conditions: in vivo; cited from earlier work

With `CS(=O)(=O)c1ccc(C(=O)C2C(=O)CCCC2=O)c(Cl)c1COCC(F)(F)F` [tembotrione, 2-[2-chloro-4-(methylsulfonyl)-3-[(2,2,2,-tri-fluoroethoxy)methyl]benzoyl]-1,3-cyclo-hexanedione] the “parent tembotrione and hydroxy tembotrione metabolites in supernatant (LC/MS-MS)” value [1] was “only intact tembotrione and no metabolites; also recorded: did not detoxify tembotrione”, the “formation of hydroxy-tembotrione metabolite” value [2] was “showed formation of the hydroxy-tembotrione metabolite; also recorded: produced the same hydroxy-tembotrione metabolite as produced in planta” and the “formation of hydroxy-tembotrione metabolite” value [3] was “also showed formation of the hydroxy-tembotrione metabolite”. The formation of hydroxy-tembotrione [4] was “did not show formation of hydroxy-tembotrione”, the formation of hydroxy-tembotrione [5] was “did not show formation of hydroxy-tembotrione” and the formation of hydroxy-tembotrione [6] was “did not show formation of hydroxy-tembotrione”. The “expression of all four cytochrome P450 genes following tembotrione treatment” value [7] was “induced”, the “expression of both genes after treatment with tembotrione (qRT-PCR)” value [8] was “high expression of both genes” and the “LD50 (dose of tembotrione required to cause 50% mortality in the population) relative to reference sensitive population” value (Palmer amaranth) was “significantly higher LD50”. The “CYP72A219 (a) expression following tembotrione treatment” value (CYP72A219 (a)) was “increased CYP72A219 (a) expression”, the “CYP81E expression constitutively or after tembotrione treatment” value (CYP81E) was “No resistant populations from the survey had increased expression of CYP81E” and the “expression of CYP unrelated to herbicide resistance before or after tembotrione treatment” value [9] was “had not increased expression in any populations”. For the same compound, the “detoxification to 4-hydroxy tembotrione metabolite followed by glycosylation” value [10] was “rapidly detoxify”, the “formation of 4-hydroxy tembotrione metabolites in NES” value [10] was “at a slower rate than in NER” and the “rate of hydroxylation, NER compared with NES” value [10] was “more rapidly in NER”.
